What all share (type): cell-based
Data set [1] relates to MCF-7 cells. Kind of data set: Acetylcholinesterase (AchE) assay of exosome/EV release. The following applies: MCF-7 cells; for AchE concentrations on day 3 / AchE concentrations, initial increase: five-day treatment; for AchE concentrations on day 3: mock 69.15; for AchE concentrations, initial increase: initial increase on days 1 and/or 2, mock 155.13; for average AChE concentrations throughout days 1 to day 5: five-day treatment at 37° C. As to the method:
(§1) 1.3. EV isolation and purification. EVs were isolated from cells by differential centrifugation as previously described (Ali SA. et al., 2010). Untreated cells were used as a control. Briefly, the above treated and untreated cell culture supernatants were centrifuged at 400×g for 10 minutes. The supernatants were transferred to a clear tube and centrifuged at 10,000×g for 30 minutes. The supernatants from the second spin were […] ultracentrifuged at 200,000×g for 2 hours to pellet the EVs. Finally, the EV pellets were re-suspended with PBS and stored at 4° C. until used for analysis.
(§2) 1.4. Exosome characterization by acetylcholinesterase (AchE) assay. Purified EVs were quantitated by measurement of AchE as described (Ellman et al., 1961). Briefly, a 100 mM dithibionitrobenzoic (DTNB) solution was prepared for use as a stock color indicator, and a 28.9 mg/mL acetylthiocholine iodide in PBS solution was prepared as a stock substrate. The stock substrate stock can be stored at −20° C. up to one month, while the color indicator can be stored at 4° C. for two weeks. A working solution was prepared by mixing 10 mL of PBS with 200 μL of Substrate and 500 μl of DTNB. 50 μL of each exosome sample was transferred to 96 well microtitre plates, and a standard curve was prepared using AchE from 0.98 mU/mL to 2000 mU/mL. After 50 μL of standards were added into separate wells, 200 μL of the working solution was added to all wells. After 20 min incubation, AchE activity was measured at 450 nm using a SpectroMax M5 fluorimeter.

Data set [2] concerns MDA-MB-231 cells. Described as above. Particulars: MDA-MB-231 cells; for AChE on day 1 (initial increase): five-day treatment, mock 146.52; for average AChE concentration levels throughout day 1 to 5: five-day treatment at 37° C. The protocol:
as §1, §2

Data set [3] relates to K562, MCF-7 and MDA-MB-231 cultures. Kind of data set: Complement-mediated cytotoxicity, overall statements across cell lines. The following applies: peptide, then anti-CXCR4 antibody and NHS. As to the method:
Therefore, it was of interest to see whether SMR peptide driven mortalin sequestration and functional disruption increases cell sensitivity to complement-induced cell death. Accordingly, MCF-7, MDA-MB-231, and K562 cells were treated with 280 nM PEG-SMRwt-Clu peptide or 560 nM SMRwt-CPP peptide alone for 60 min at 37° C., followed by treatment with 1 μg/mL anti-CXCR4 antibody and 50 μL normal human serum (NHS; as a source of complement) or normal heat-inactivated (human) serum (NIS) for an additional 60 min at 37° C. (FIG. 8). PEG-SMRmut-Clu peptide and SMRmut-CPP peptide were used as negative controls. The percentage of stained (dead) cells was determined by trypan blue exclusion and is representative of 3 independent experiments.
To further validate the ability of mortalin neutralization to render or enhance complement-mediated cytotoxicity, MCF-7, MDA-MB-231 and K562 cells were transfected with vectors expressing mortalin siRNAs or negative control siRNAs, incubated for 72 hours at 37° C., treated with anti-CXCR4 antibody for 30 minutes at 4° C. followed by incubation with either NHS or NIS for 60 minutes at 37° C.

In data set [4] the test system is MCF-7 cells. In words: Western blot analysis of EV protein content. The following applies: 48 hours treatment; for Alix expression in EVs / Vimentin expression in EVs: relative to negative controls. The protocol: as §1
(§3) 1.6. Western blot analysis. EVs were isolated from culture supernatants as described above. Protein concentrations were determined by measuring absorbance at 280 nm (Nanodrop 2000). Protein samples were denatured in SDS-PAGE sample buffer by heating at 95° C. for 15 min. Criterion TGX Precast Gels (4-20% Bio-Rad, Richmond, CA) were used to separate the proteins and blotted as previously described (Huang MB. et al 2004). Blots were incubated with the primary antibodies, anti-CD63 and anti-Alix, followed by goat or rabbit anti-Ig secondary antibodies. Specific bands were detected using ECL chemiluminescent substrate (Santa Cruz Biotechnology, Santa Cruz, CA) and visualized on the ImageQuant LAS 4000 imaging system (GE Healthcare, Piscataway, NJ 08854).
(§4) Western blot analysis was used to examine the effects of the SMRwt peptides, PEG-SMRwt-Clu peptide and SMRwt-CPP peptide, and the mortalin inhibitors MKT-077, Omeprazole, and DMA on EV protein content in MCF-7, MDA-MB-231 and K562 cells. Negative control treatments included the PEG-SMRmut-Clu peptide, […] (SEQ ID NO: 49) and the SMRmut-CPP peptide, […] (SEQ ID NO: 50). EVs were isolated from all treated and untreated cell lines screened. Western blot analyses were carried out to evaluate the expression levels of the exosomal proteins, Alix, mortalin, and vimentin in MCF-7 cells (FIG. 7, Panel A, left sub-panel), MDA-MB-231 cells (FIG. 7, Panel A, middle sub-panel), and K562 cells (FIG. 7, Panel A, right sub-panel).

Data set [5] relates to MDA-MB-231 cells. In words: Western blot analysis of EV protein content. Particulars: 48 hours treatment. The protocol:
as §1, §3, §4
A general note: In western blotting, separated proteins are transferred to a membrane and probed.

A further data set deals with K562 cells. Kind of data set: Western blot analysis of EV protein content. Particulars: 48 hours treatment. As to the method: as §1, §3, §4
The subject of data set [6] is MCF-7, MDA-MB-231 and K562 cells. Kind of data set: Exosome/EV release, overall statements across cell lines (AchE, NanoSight, Western blot). Particulars: MCF-7, MDA-MB-231 and K562 cells; five days at 37° C.; AchE assay. As to the method: Acetylcholinesterase (AchE) assays, NanoSight analysis and Western blot analysis were performed to characterize EVs released from MCF-7 and MDA-MB-231 cells treated for 48 hr with the various peptides.
To further examine the underlying mechanism for blocking exosome release, a study was extended to examine the effects of the SMRwt peptides, PEG-SMRwt-Clu peptide and SMRwt-CPP peptide, and the mortalin inhibitors MKT-077, Omeprazole, and DMA on exosome release. In particular, acetylcholinesterase (AchE) assays, NanoSight analysis and Western blot analysis were performed to characterize EVs released from MCF-7, MDA-MB-231 and K562 cells. Panels A, B and C depict the relative numbers of EVs released as a function of time as measured by an acetylcholinesterase (AchE) assay in MCF-7 cells (FIG. 6, Panel A); MDA-MB-231 cells (FIG. 6, Panel B); and K562 cells (FIG. 6, Panel C).

“Also recorded” adds a separate entry of the source. Ends that are not written are not given here.

In the case of “AGFPVAAAGFPVGRKKRRQRRRPPQ (SEQ ID NO: 50) (Synthetic SMRmut-CPP)”, in the data set with MCF-7 cells [1], the “AchE concentrations on day 3” value turned out to be 66.05 mU/mL and the “AchE concentrations, initial increase” value is given as 150.06 mU/mL. Also, the “AChE on day 1 (initial increase)” value in the data set with MDA-MB-231 cells [2] is listed as 141.47 mU/mL.
Consider “NXNAGFPVAAAGFPVHPLSKHPYWSQP (SEQ ID NO: 49) [PEG-SMRmut-Clu]”, for which, in the data set on MCF-7 cells [1], the “AchE concentrations on day 3” value worked out at 69.0 mU/mL and the “AchE concentrations, initial increase” value amounted to 151.5 mU/mL. In addition, in the data set with MDA-MB-231 cells [2], the “AChE on day 1 (initial increase)” value was 146.79 mU/mL.
For the compound VGFPVAAVGFPVGRKKRRQRRRPPQ [SMRwt-CPP], in data set [3], the “complement-mediated cytotoxicity / cell death in the presence of NHS” value is given as “induce complement-mediated cytotoxicity”.
As for `CCn1c(=Cc2cccc[n+]2CC)sc(=C2Sc3ccccc3N2C)c1=O.[Cl-]` [MKT-077, 1-Ethyl-2-[[3-ethyl-5-(3-methyl-2(3H)-benzothiazolylidene)-4-oxo-2-thiazolidinylidene]methyl]-pyridinium chloride], in the data set on MCF-7 cells [4], the “Mortalin expression in EVs” value is listed as “significantly decreased”, the “Alix expression in EVs” value is “significantly decreased” and the “Vimentin expression in EVs” value was “significantly decreased”. In addition, in the data set with MDA-MB-231 cells [5], the “Mortalin expression in EVs” value is listed as “No significant change” and the “Vimentin expression in EVs” value is listed as “no significant change”. Moreover, in the data set on K562 cells, the “Alix expression in EVs” value is given as “significantly decreased”, the “Mortalin expression in EVs” value is recorded as “significantly decreased” and the “Vimentin expression in EVs” value was “significantly increased”. Further, the “average AChE concentrations throughout days 1 to day 5” value in the data set on MCF-7 cells [1] was 22 mU/mL. Further, the “average AChE concentration levels throughout day 1 to 5” value with MDA-MB-231 cells [2] is listed as 29 mU/mL. In addition, the “exosome/EV release (number of EVs released)” value (“exosome/EV release” below) in data set [6] is given as “reduced the number of EVs released; also recorded: blocked exosome release”.
With `COc1ccc2[nH]c([S+]([O-])Cc3ncc(C)c(OC)c3C)nc2c1` (stereo not drawn) [Omeprazole, 5-Methoxy-2-[[(4-methoxy-3,5-dimethyl-2-pyridinyl)methyl]sulfinyl]-1H-benzimidazole], the results for the “Mortalin expression in EVs” value with MCF-7 cells [4], in the data set with MDA-MB-231 cells [5] and with K562 cells were “no significant changes”, “No significant change” and “significantly decreased”, respectively. In addition, the results for the “Alix expression in EVs” value with MCF-7 cells [4] and in the data set with K562 cells were “not accompanied by significant reductions” and “significantly decreased”, respectively. Further, the “Vimentin expression in EVs” value with MCF-7 cells [4] is “significantly decreased”; with MDA-MB-231 cells [5], “no significant change”; in the data set with K562 cells, “significantly increased”. Moreover, the “average AChE concentrations throughout days 1 to day 5” value in the data set on MCF-7 cells [1] is 26 mU/mL. Besides, in the data set with MDA-MB-231 cells [2], the “average AChE concentration levels throughout day 1 to 5” value came to 25 mU/mL. Also, the “exosome/EV release” value in data set [6] is “reduced the number of EVs released; also recorded: blocked exosome release”.
Regarding `CN(C)c1nc(N)c(C(=O)NC(=N)N)nc1Cl` [DMA, 5-(N,N-Dimethyl)amiloride], in the data set on MCF-7 cells [4], the “Mortalin expression in EVs” value is “no significant changes”, the “Alix expression in EVs” value is given as “not accompanied by significant reductions” and the “Vimentin expression in EVs” value was “significantly decreased”. Further, in the data set on MDA-MB-231 cells [5], the “Vimentin expression in EVs” value is recorded as “significantly decreased”. In addition, in the data set on K562 cells, the “Alix expression in EVs” value is on record as “significantly decreased”, the “Mortalin expression in EVs” value is “significantly decreased” and the “Vimentin expression in EVs” value is recorded as “significantly increased”. In the data set with MCF-7 cells [1], the “average AChE concentrations throughout days 1 to day 5” value is 26 mU/mL. In the data set on MDA-MB-231 cells [2], the “average AChE concentration levels throughout day 1 to 5” value came out at 37 mU/mL. Further, in data set [6], the “exosome/EV release” value is given as “reduced the number of EVs released; also recorded: blocked exosome release”.

Values taken from patent US12187767B2 (priority 2021, dated 2025).
